{"source": "patent US5891469A", "about": "“Solid Coprecipitates for enhanced bioavailability of lipophilic substances” (Pharmos Corporation, priority 1997, dated 1999)", "origin": "cited, not measured here", "key": {"[1]": {"details": "for solubility in aqueous solutions: cannabinoids, depending upon the conditions (Garret and Hunt 1974)"}, "[2]": {"details": "like other lipophilic drugs"}}, "data": [{"compound": "COC1=C(OC)C(=O)C(C/C=C(\\C)CC/C=C(\\C)CC/C=C(\\C)CC/C=C(\\C)CC/C=C(\\C)CC/C=C(\\C)CC/C=C(\\C)CC/C=C(\\C)CC/C=C(\\C)CCC=C(C)C)=C(C)C1=O", "note": "[Coenzyme Q10, 2,3-dimethoxy-5-methyl-6-decaprenyl-1,4-benzoquinone]", "values": [{"measurement": "solubility in water (in words)", "setting": "[1]; due to long side chain of 10 isoprenoid units", "result": "practically insoluble in water"}]}, {"compound": "CCCCCCC(C)(C)c1cc(O)c2c(c1)OC(C)(C)[C@H]1CC=C(CO)C[C@H]21", "note": "[Dexanabinol, (+)-(3S, 4S)-7-hydroxy-Δ^6-tetra hydrocannabinol-1,1-dimetylheptyl]", "values": [{"measurement": "oral bioavailability", "setting": "[2]", "result": "poor oral bioavailability"}, {"measurement": "solubility in water", "setting": "[1]; practically insoluble in water", "result": "less than 50 μg/ml"}]}, {"compound": "C=C(C)[C@@H]1CCC(C)=C[C@H]1c1c(O)cc(CCCCC)cc1O", "note": "[cannabidiol]", "values": [{"measurement": "solubility in aqueous solutions", "setting": "[1]", "result": "a few micrograms/ml or less"}]}, {"compound": "CCCCCc1cc(O)c2c(c1)OC(C)(C)c1ccc(C)cc1-2", "note": "[cannabinol]", "values": [{"measurement": "solubility in aqueous solutions", "setting": "[1]", "result": "a few micrograms/ml or less"}]}, {"compound": "CCCCCc1cc(O)c2c(c1)OC(C)(C)[C@@H]1CCC(C)=C[C@@H]21", "note": "[tetrahydrocannabinol (THC), tetrahydrocannabinol]", "values": [{"measurement": "maximal plasma levels", "setting": "oral dosing of 20 mg THC in a sesame oil formulation (Wall et al. 1983)", "result": "around 10 ng/ml"}, {"measurement": "human bioavailability following oral ingestion, mean estimates", "setting": "oral, depending on the vehicle used", "result": "6 to 12", "unit": "%"}]}, {"compound": "CCCCCc1cc(O)c2c(c1)OC(C)(C)[C@@H]1CCC(C)=C[C@@H]21", "note": "[Δ^1 -tetrahydrocannabinol (Δ^1 -THC), Δ^1 -tetrahydrocannabinol]", "values": [{"measurement": "solubility in aqueous solutions", "setting": "[1]", "result": "a few micrograms/ml or less"}]}, {"compound": "CCCCCc1cc(O)c2c(c1)OC(C)(C)[C@@H]1CC=C(C)C[C@@H]21", "note": "[Δ^6 -tetrahydrocannabinol (Δ^6 -THC), Δ^6 -tetrahydrocannabinol]", "values": [{"measurement": "solubility in aqueous solutions", "setting": "[1]", "result": "a few micrograms/ml or less"}]}]}
